Four compounds from patent US20250270182A1, “Composition Comprising an Antimicrobial Agent and an Alkyl Ketal Ester Compound” (Symrise AG, priority 2022, published 2025) can be followed below.

What all share (test): Minimum Inhibitory Concentration (MIC) test, growth inhibition in 96 well plates
Type in all cases: cell-based

One test has as its system Candida albicans. To be noted: lowest concentration with complete growth inhibition, optical density, substances solved in DMSO; for MIC: Candida albicans, read-out: MIC in ppm Candida albicans. As for the experimental part:
(§1) The Minimum Inhibitory Concentration (MIC) test is a test on growth inhibition. The estimation of MICs is executed in 96 well plates. Through the comparison of bacterial growth with positive and negative controls via optical density (OD), different concentrations of given test substances are evaluated. Bacteria were cultivated under adjusted conditions based on information of the German Collection of Microorganisms and Cell Cultures (DSMZ) and stored in 10% or 50% glycerol prior to use. Afterwards, the following method was applied: Growth medium (according to microorganism) was added to each well of the microplate. Then, the test-substances, solved in DMSO, were added in different concentrations, positive controls (water controls only with medium), solvent controls (DMSO controls only with medium), and negative controls (benchmarks according to organism). Finally, the microorganisms were added in a concentration of 1 to 6×10^6 CFU/ml (CFU=colony forming units). The incubation of the microplates was carried out at appropriate conditions. According to the resulting growth, substance concentrations are labelled either as inhibiting or not and MIC is defined as the lowest concentration where a complete growth inhibition is visible. Experiments at concentration limits (highest concentration labelled as growth and lowest concentration labelled as inhibiting) are performed at least twice. The synergistic activity of NxtSolv 320 (Ethyl propylene glycol acetal levulinate) and Nxt Solv 420 (Ethyl glycerine acetal levulinate) in combination with different antimicrobial compounds was determined by measuring the Minimum Inhibitory Concentrations (MIC) according to the method as described above. […] In special occasions, intermediate dilution steps were performed to further improve the MIC resolution. […] To verify that the tested combinations act synergistically against microorganisms, corresponding experiments were conducted with Staphylococcus aureus, Candida albicans, Aspergillus brasiliensis, Pseudomonas aeruginosa and Escherichia coli. […] In order to calculate the synergy index with MIC values, the Kull equation was used as follows: […]

The next test has as its system Pseudomonas aeruginosa. To be noted: lowest concentration with complete growth inhibition, optical density, substances solved in DMSO; for MIC: Pseudomonas aeruginosa, read-out: MIC in ppm Pseudomonas aeruginosa. As for the experimental part: as §1
The subject of the next test is Aspergillus brasiliensis. As to conditions: lowest concentration with complete growth inhibition, optical density, substances solved in DMSO; for MIC: Aspergillus brasiliensis, read-out: MIC in ppm Aspergillus brasiliensis. As for the experimental part:
as §1

In the next test the test system is Escherichia coli. To be noted: lowest concentration with complete growth inhibition, optical density, substances solved in DMSO; for MIC: Escherichia coli, read-out: MIC in ppm Escherichia coli. The protocol:
as §1

The subject of another test is Staphylococcus aureus. To be noted: lowest concentration with complete growth inhibition, optical density, substances solved in DMSO; for MIC: Staphylococcus aureus, read-out: MIC in ppm Staphylococcus aureus. As for the experimental part: as §1

As for `CC(=O)c1ccc(O)cc1` [4-Hydroxyacetophenone], the “MIC in ppm Candida albicans” value in the test with Candida albicans is reported as 6,000 ppm. Moreover, in the test with Pseudomonas aeruginosa, the “MIC in ppm Pseudomonas aeruginosa” value is on record as 4,000 ppm. The “MIC in ppm Aspergillus brasiliensis” value in the test on Aspergillus brasiliensis is listed as 2,500 ppm. For the same compound, the “MIC in ppm Escherichia coli” value in the test on Escherichia coli is recorded as 2,500 ppm. The “MIC in ppm Staphylococcus aureus” value in the test with Staphylococcus aureus is listed as 5,000 ppm.

For orientation: MIC means the lowest concentration that inhibits growth of the organism. Regarding `CCOC(=O)CCC1(C)OCC(CO)O1` (centres unmarked) [Ethyl glycerine acetal levulinate, ethyl glycerine acetal levulinate], the minimal inhibitory concentration (MIC) worked out at 25 mg/mL in the test on Candida albicans; 35 mg/mL in the test on Pseudomonas aeruginosa; 15 mg/mL in the test with Aspergillus brasiliensis; 25 mg/mL with Escherichia coli; 17.5 mg/mL with Staphylococcus aureus.

For the compound `CCCCC(CC)COCC(O)CO` (centres unmarked) [Ethylhexylglycerin], the “MIC in ppm Candida albicans” value in the test on Candida albicans is 1,000 ppm. In addition, the “MIC in ppm Pseudomonas aeruginosa” value in the test on Pseudomonas aeruginosa was 50,000 ppm. Moreover, the “MIC in ppm Aspergillus brasiliensis” value in the test on Aspergillus brasiliensis was 1,000 ppm. The “MIC in ppm Escherichia coli” value in the test with Escherichia coli is 2,500 ppm. The “MIC in ppm Staphylococcus aureus” value in the test with Staphylococcus aureus is given as 1,000 ppm.

For the compound `CCCC(O)CO` (centres unmarked) [1,2-Pentanediol], the MIC worked out at 12.5 mg/mL in the test on Candida albicans; 30 mg/mL with Pseudomonas aeruginosa; 17.5 mg/mL in the test with Aspergillus brasiliensis; 15 mg/mL with Escherichia coli; 35 mg/mL in the test on Staphylococcus aureus.
